According to patent US20250325467A1, “COMPOSITIONS FOR PREVENTING OR TREATING SKIN AGING” (ESTETRA SRL, priority 2021, published 2025):

How the values were obtained:
[1] = Tissue distribution (QWBA) of [^14C]-estetrol after a single oral dose in non-pigmented rats; assay type: in vivo; settings: single oral 15 mg/kg, 3 hour (Rat 08F)
[2] = Tissue distribution (QWBA) of [^14C]-estetrol after a single oral dose in partially pigmented rats; settings: for Concentration of radioactivity, Skin: Non-pigmented / Concentration of radioactivity, Skin: Pigmented / Tissue:Blood ratio, Skin: Non-pigmented / Tissue:Blood ratio, Skin: Pigmented / Total amount of radioactivity, Skin (non-pigmented) / Total amount of radioactivity, Skin (pigmented): single oral 15 mg/kg
Procedure: Tissue distribution was determined in female rats (partially pigmented and non-pigmented) using [^14C]-estetrol.
A group of six female Lister Hooded rats each received a single oral dose of [^14C]-estetrol. At each selected time (see below) one animal was killed (by overdose of CO2) followed by immediate snap freezing in hexane/solid CO2. The carcasses were retained for examination of the tissue distribution of radioactivity using the technique of quantitative whole body autoradiography (QWBA).
Times for analysis were: (0.5, 8, and 24 hours, 7, 14 and 35 days)
Frozen carcasses were subjected to whole-body autoradiography.
Where concentrations are reported, radioactivity was assumed to be associated with [^14C]-estetrol or any metabolic products derived from [^14C]-estetrol. The specific activities of the dosed test compounds were used for the calculation of concentrations in all cases. Recoveries of radioactivity are reported as percentage of administered radioactivity (% dose). Radioactivity concentrations are also reported as pg equivalents/g.

[3] = Tissue distribution (QWBA) of [^14C]-estetrol after a single oral dose in non-pigmented rats; assay type: in vivo, rat; settings: for Concentration of radioactivity, Skin: Non-pigmented / Tissue:Blood ratio, Skin: Non-pigmented: non-pigmented rats, single oral 15 mg/kg
Procedure: Times for analysis were: 0.5, 1, 2, 5, 8, 24 and 48 hours
Distribution of radioactivity in tissues was determined and quantified using the Fuji FLA-5100 fluorescent image analyser and associated Tina and SeeScan software. Tissue concentrations of radioactivity were determined using calibrated autoradiographic microscales produced by GE Healthcare. A standard curve was produced using the microscales from which tissue concentrations of radioactivity were determined (nCi/g). These values were then converted into pg equivalents/g using the specific activity of the dose formulation.
Radioactivity concentrations are also reported as […] equivalents/g.

[4] = partially pigmented rats, 0.5 hours
[5] = partially pigmented rats, 8 hours
[6] = partially pigmented rats, 24 hours
[7] = partially pigmented rats, 7 days
[8] = partially pigmented rats, 14 days
[9] = partially pigmented rats, 35 days

Substance: [^14C]-estetrol
- Tissue:Blood ratio, Skin: Non-pigmented [1]: 0.99
- concentration of radioactivity, liver (greatest concentration) ([2]; female partially pigmented rats, single oral dose, 0.5 hours): 13.7 μg equivalents/g
- Concentration of radioactivity, Skin: Non-pigmented [2, 4]: 1.89 microgram equivalents/gram
- Concentration of radioactivity, Skin: Pigmented [2, 4]: 2.85 microgram equivalents/gram
- Tissue:Blood ratio, Skin: Non-pigmented [2, 4]: 0.71
- Tissue:Blood ratio, Skin: Pigmented [2, 4]: 1.07
- Total amount of radioactivity, Skin (non-pigmented) [2, 4]: 1.136 % dose administered/tissue
- Total amount of radioactivity, Skin (pigmented) [2, 4]: 1.714 % dose administered/tissue
- Concentration of radioactivity, Skin: Non-pigmented [2, 5]: 0.090 microgram equivalents/gram
- Concentration of radioactivity, Skin: Pigmented [2, 5]: 0.161 microgram equivalents/gram
- Tissue:Blood ratio, Skin: Non-pigmented [2, 5]: 0.56
- Tissue:Blood ratio, Skin: Pigmented [2, 5]: 1.01
- Total amount of radioactivity, Skin (non-pigmented) [2, 5]: 0.059 % dose administered/tissue
- Total amount of radioactivity, Skin (pigmented) [2, 5]: 0.099 % dose administered/tissue
- Concentration of radioactivity, Skin: Non-pigmented [2, 6]: BLQ
- Concentration of radioactivity, Skin: Pigmented [2, 6]: 0.113 microgram equivalents/gram
- Total amount of radioactivity, Skin (non-pigmented) [2, 6]: <0.041 % dose administered/tissue
- Total amount of radioactivity, Skin (pigmented) [2, 6]: 0.061 % dose administered/tissue
- Concentration of radioactivity, Skin: Non-pigmented [2, 7]: BLQ
- Concentration of radioactivity, Skin: Pigmented [2, 7]: BLQ
- Total amount of radioactivity, Skin (non-pigmented) [2, 7]: <0.043 % dose administered/tissue
- Total amount of radioactivity, Skin (pigmented) [2, 7]: <0.043 % dose administered/tissue
- Concentration of radioactivity, Skin: Non-pigmented [2, 8]: BLQ
- Concentration of radioactivity, Skin: Pigmented [2, 8]: BLQ
- Total amount of radioactivity, Skin (non-pigmented) [2, 8]: <0.038 % dose administered/tissue
- Total amount of radioactivity, Skin (pigmented) [2, 8]: <0.038 % dose administered/tissue
- Concentration of radioactivity, Skin: Non-pigmented [2, 9]: BLQ
- Concentration of radioactivity, Skin: Pigmented [2, 9]: BLQ
- Total amount of radioactivity, Skin (non-pigmented) [2, 9]: <0.041 % dose administered/tissue
- Total amount of radioactivity, Skin (pigmented) [2, 9]: <0.041 % dose administered/tissue
- concentration of radioactivity, liver ([2]; partially pigmented rats, single oral dose, 7 days after dosing): 0.410 μg equivalents/g
- concentration of radioactivity, majority of tissues (BLQ) ([2]; partially pigmented rats, single oral dose, by 24 hours): < 0.076 μg equivalents/g
- concentration of radioactivity, all analyzed tissues except liver, including uveal tract and pigmented skin ([2]; partially pigmented rats, single oral dose, by 7 days): at or below the limit of quantification
- concentration of radioactivity, liver (greatest concentration) ([3]; female non-pigmented rats, single oral dose, 0.5 hours): 12.5 microgram equivalents/gram
- Concentration of radioactivity, Skin: Non-pigmented ([3]; 0.5 hours): 2.59 microgram equivalents/gram
- Tissue:Blood ratio, Skin: Non-pigmented ([3]; 0.5 hours): 1.05
- Concentration of radioactivity, Skin: Non-pigmented ([3]; 1 hour): 0.771 microgram equivalents/gram
- Concentration of radioactivity, Skin: Non-pigmented ([3]; 2 hours): 0.465 microgram equivalents/gram
- Tissue:Blood ratio, Skin: Non-pigmented ([3]; 2 hours): 1.72
- Concentration of radioactivity, Skin: Non-pigmented ([3]; 5 hours): 0.189 microgram equivalents/gram
- Tissue:Blood ratio, Skin: Non-pigmented ([3]; 5 hours): 1.66
- Concentration of radioactivity, Skin: Non-pigmented ([3]; 8 hours): 0.361 microgram equivalents/gram
- Tissue:Blood ratio, Skin: Non-pigmented ([3]; 8 hours): 1.77
- Concentration of radioactivity, Skin: Non-pigmented ([3]; 24 hours): BLQ
- Concentration of radioactivity, Skin: Non-pigmented ([3]; 48 hours): BLQ
